The values that follow come from patent US11364256B2, “Viral inhibition” (Monash University, priority 2020, dated 2022).

Where two headings read alike, the source gives them in different places.

The test system of series [1] is SARS-CoV-2 isolate Australia/VIC01/2020. Description: SARS-CoV-2 infected Vero/hSLAM cells treated after infection, viral RNA by real-time RT-PCR. Type of series: cell-based. Background: Quantitative PCR measures a nucleic acid by following its amplification.
Series [2] deals with seasonal coronavirus 229E. Description: Huh-7 cells infected with 229E, treated after infection, viral load by real-time PCR of supernatant. Particulars: Huh-7, 229E MOI 0.01, 48 h post infection, read-out: IC50 (FIG. 6, panels A/B). Type of series: cell-based. Here is the method:
Huh-7 cells were infected with 229E (MOI=0.01) for 2 h prior to addition of vehicle (DMSO), Ivermectin (FIG. 6, panel A) or Moxidectin (FIG. 6, panel B) at the indicated concentrations. Samples were taken 48 h post infection for quantitation of viral load using real-time PCR of supernatant. Results represent mean±SD (n=6) relative to DMSO alone.

Series [3] deals with SARS-CoV-2. Nature of the series: Prophylactic pre-treatment of Vero/hSLAM cells before SARS-CoV-2 infection, viral load by real-time PCR of supernatant. The class given is cell-based. Here is the method: Vero/hSLAM cells were pre-treated with DMSO, ivermectin or Moxidectin at the indicated concentrations for 2 h prior to infection with SARS-CoV-2 (MOI=0.01) for 2 h in the presence of DMSO or drugs. Samples were washed post-adsorption and incubated in the fresh media containing DMSO or drugs for 48 h before quantitation of viral load using real-time PCR of supernatant. The results shown in FIG. 5 represent mean±SD (n=6) relative to DMSO alone. […] Average IC50 values for CALU-3 cells compared to Vero/hSLAM cells assayed under the same conditions are shown (Table, right, n=independent experiments).

For series [4], the system named is Vero/hSLAM cells. Particulars: for toxicity at any of the time points tested: sample wells or parallel drug alone samples, 5 μM.
Series [5] deals with SARS-CoV-2 clinical isolate Australia/VIC01/2020. Nature of the series: SARS-CoV-2 infected CALU-3 (human lung) cells, viral load by real-time PCR of supernatant. The class given is cell-based. The procedure: CALU-3 (human lung) cells were infected with SARS-CoV-2 clinical isolate Australia/VIC01/2020 (MOI=0.01) for 2 h prior to addition of vehicle (DMSO) or Ivermectin at the indicated concentrations indicated in FIG. 3. Samples were taken 24 h post infection for quantitation of viral load using real-time PCR of supernatant. The results illustrated in FIG. 3 represent mean±SD (n=6) relative to DMSO alone.

The subject of series [6] is seasonal coronavirus 229E. Nature of the series: Prophylactic pre-treatment of Huh-7 cells before 229E infection, viral load by real-time PCR. Type of series: cell-based. Particulars: Huh-7 pre-treated 2 h, 229E MOI 0.01, 48 h; read-out: IC50 (FIG. 6, panel C), prophylactic. The procedure:
For assessment of prophylactic potential Huh-7 cells were pre-treated with DMSO or ivermectin at the indicated concentrations for 2 h prior to infection with 229E (MOI=0.01) for 2 h in the presence of DMSO or ivermectin (FIG. 6, panel C). Samples (n=5) were washed post-adsorption and incubated in the fresh media containing DMSO or ivermectin for 48 h before quantitation of viral load as above.

Where [7] appears, read: 48 h, compared to vehicle DMSO, Vero/hSLAM, E gene, concentration not restated (5 μM in FIG. 2, panel A).
Setting [8] is: 5 μM, 24 h, MOI 0.1, Vero/hSLAM, compared to vehicle DMSO.

For the molecule `CO/N=C1\C[C@]2(C[C@@H]3C[C@@H](C/C=C(\C)C[C@@H](C)/C=C/C=C4\CO[C@@H]5[C@H](O)C(C)=C[C@@H](C(=O)O3)[C@]45O)O2)O[C@H](/C(C)=C/C(C)C)[C@H]1C` [moxidectin], in series [1] (setting [7]), the “reduction in viral RNA present in the supernatant (released virions)” value is 99.9%. Moreover, the IC50 was 1300 nM in series [1] (Severe acute respiratory syndrome coronavirus 2, 24 h, supernatant, E gene, MOI 0.01, Vero/hSLAM, read-out: Calculated IC50 (FIG. 2, panel B)); 1300 nM in series [1] (Severe acute respiratory syndrome coronavirus 2, 48 h, supernatant, E gene, MOI 0.01, Vero/hSLAM, read-out: Calculated IC50 (FIG. 2, panel C)); 2400 nM in series [1] (Severe acute respiratory syndrome coronavirus 2, 72 h, supernatant, E gene, MOI 0.01, Vero/hSLAM, read-out: Calculated IC50 (FIG. 2, panel D)); 240 nM in series [2] (Human coronavirus 229E); 1660 nM in series [3] (Severe acute respiratory syndrome coronavirus 2, Vero, read-out: IC50 +/− SEM (n*), treated prophylactically); 1800 nM in series [3] (Severe acute respiratory syndrome coronavirus 2, pre-treated 2 h, MOI 0.01, 48 h, supernatant, Vero/hSLAM, read-out: IC50 (FIG. 5), prophylactic). The “toxicity at any of the time points tested” value in series [4] is “No toxicity”.

For the molecule ivermectin, the “reduction in cell-associated viral RNA (unreleased and unpackaged virions)” value in series [1] (setting [8]) is 99.8%. The “reduction in viral RNA present in the supernatant (released virions)” value in series [1] (setting [8]) is recorded as 93%; in series [1] (setting [7]), 99.5%. In addition, the “reduction in viral RNA in both supernatant and cell pellets” value in series [1] (5 μM, 48 h, E gene, Vero/hSLAM) is greater than 5000. Further, the “reduction in viral RNA (equating to the >5000 reduction)” value in series [1] (5 μM, 48 h, supernatant and cell pellets, Vero/hSLAM) is listed as 99.98%. For the same molecule, the “further reduction in viral RNA at 72 h” value in series [1] (5 μM, 72 h versus 48 h, MOI 0.1, Vero/hSLAM) is on record as “no further reduction”. For the same molecule, the IC50 in series [1] (24 h, supernatant, E gene, MOI 0.01, Vero/hSLAM, read-out: Calculated IC50 (FIG. 2, panel B)) is 1400 nM; in series [1] (48 h, supernatant, E gene, MOI 0.01, Vero/hSLAM, read-out: Calculated IC50 (FIG. 2, panel C)), 2200 nM; in series [1] (72 h, supernatant, E gene, MOI 0.01, Vero/hSLAM, read-out: Calculated IC50 (FIG. 2, panel D)), 3100 nM; in series [1] (E gene, 48 h, treated 2 h post infection, MOI 0.1, Vero/hSLAM, panels C/D = supernatant and cell pellets, read-out: IC50 of ivermectin treatment (FIG. 1, panel C)) it was 2800 nM; in series [1] (E gene, 48 h, treated 2 h post infection, MOI 0.1, Vero/hSLAM, panels C/D = supernatant and cell pellets, read-out: IC50 of ivermectin treatment (FIG. 1, panel D)) it was 2400 nM; in series [1] (RdRp gene primers, 48 h, MOI 0.1, Vero/hSLAM, panels E/F = released (supernatant) and cell-associated virus, read-out: IC50 of ivermectin treatment (FIG. 1, panel E)), 2500 nM. The IC50 in series [1] (RdRp gene primers, 48 h, MOI 0.1, Vero/hSLAM, panels E/F = released (supernatant) and cell-associated virus, read-out: IC50 of ivermectin treatment (FIG. 1, panel F)) came out at 2200 nM; in series [1] (average of independent experiments, Vero/hSLAM assayed under the same conditions as CALU-3, read-out: IC50 +/− SEM (n*), Vero/hSLAM), 2370 nM; in series [2], 180 nM; in series [5] (CALU-3, 24 h post infection, supernatant, MOI 0.01, read-out: IC50 (FIG. 3)), 420 nM; in series [5] (average of independent experiments, CALU-3, read-out: IC50 +/− SEM (n*), CALU-3) it was 410 nM; in series [6], 2060 nM. In addition, the IC50 in series [3] (average of independent experiments, Vero/hSLAM, read-out: IC50 +/− SEM (n*), treated prophylactically) is 1730 nM; in series [3] (pre-treated 2 h, MOI 0.01, 48 h, supernatant, Vero/hSLAM, read-out: IC50 (FIG. 5), prophylactic) it was 1600 nM. In addition, in series [4], the “toxicity at any of the time points tested” value is on record as “No toxicity”. Moreover, the “toxicity at any of the concentrations tested” value in series [4] (serial dilutions, 48 h) is recorded as “no toxicity”.
